Earlier results, collected in patent US9950044B2, “Treatment of pulmonary vascular remodeling with neprilysin” (THE REGENTS OF THE UNIVERSITY OF COLORADO, A BODY CORPORATE, priority 2010, dated 2018).

Experiments:
[1] = system: VIP KO mice; settings: IP injections every other day; cited from earlier work
[2] = system: human PA SMCs from IPAH patients; settings: cells from IPAH patients; cited from earlier work
[3] = system: human IPAH patients; settings: cited from earlier work
[4] = system: NEP; settings: exogenous VIP; cited from earlier work
[5] = human IPAH patients, inhalation

VIP: 28 amino acid peptide with a molecular weight of 3.33 kD
PA medial thickening [1]: reduced
RV hypertrophy [1]: reduced
in vitro proliferation of human PA SMCs [2]: inhibited
PaO2 [3, 5]: significant improvement
exercise capacity [3, 5]: significant improvement
untoward effects reported by subjects ([3]; human, in vivo): no untoward effects
effect on NEP enzymatic activity [4]: did not affect
